How the values were obtained:
Assay type in all cases: binding
BAZ2B = biological target: T1, BAZ2B (Homo sapiens, UniProt Q9UIF8); experiment: Thermal shift assay, BAZ2B
T1 construct: purchased in-house (SGC bromodomain thermal shift / AlphaScreen panel)
Experimental: (§1) II.VII Thermal Shift Assay[6]
(§2) Thermal melting experiments were carried out using an Mx3005p Real Time PCR machine (Stratagene). Proteins were buffered in 10 mM HEPES pH 7.5, 500 mM NaCl and assayed in a 96-well plate at a final concentration of 2 μM in 20 μL volume. Compounds were added at a final concentration of 50 μM. SYPRO Orange (Molecular Probes) was added as a fluorescence probe at a dilution of 1:1000. Excitation and emission filters for the SYPRO-Orange dye were set to 465 nm and 590 nm, respectively. The temperature was raised with a step of 3 °C per minute from 25 °C to 96 °C and fluorescence readings were taken at each interval. The unfolding curves were fitted using the Boltzmann equation to determine the middle point of the transition.

TRIM33B = biological target: T2, TRIM33B (Homo sapiens, UniProt Q9UPN9); experiment: Thermal shift assay, TRIM33B
T2 construct: Bromosporine with recombinant human bromodomain proteins; made in house
T2 sequence (Q9UPN9 957-1063 isoform Q9UPN9-2 limits assumed): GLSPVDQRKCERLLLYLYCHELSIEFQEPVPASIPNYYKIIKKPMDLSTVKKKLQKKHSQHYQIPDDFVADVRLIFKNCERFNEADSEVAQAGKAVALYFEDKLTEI
Experimental: as §1, §2

BRD7 = biological target: T3, BRD7 (Homo sapiens, UniProt Q9NPI1); experiment: Thermal shift assay, BRD7
T3 construct: purchased in-house (SGC bromodomain thermal shift / AlphaScreen panel)
T3 sequence (Q9NPI1 1-651): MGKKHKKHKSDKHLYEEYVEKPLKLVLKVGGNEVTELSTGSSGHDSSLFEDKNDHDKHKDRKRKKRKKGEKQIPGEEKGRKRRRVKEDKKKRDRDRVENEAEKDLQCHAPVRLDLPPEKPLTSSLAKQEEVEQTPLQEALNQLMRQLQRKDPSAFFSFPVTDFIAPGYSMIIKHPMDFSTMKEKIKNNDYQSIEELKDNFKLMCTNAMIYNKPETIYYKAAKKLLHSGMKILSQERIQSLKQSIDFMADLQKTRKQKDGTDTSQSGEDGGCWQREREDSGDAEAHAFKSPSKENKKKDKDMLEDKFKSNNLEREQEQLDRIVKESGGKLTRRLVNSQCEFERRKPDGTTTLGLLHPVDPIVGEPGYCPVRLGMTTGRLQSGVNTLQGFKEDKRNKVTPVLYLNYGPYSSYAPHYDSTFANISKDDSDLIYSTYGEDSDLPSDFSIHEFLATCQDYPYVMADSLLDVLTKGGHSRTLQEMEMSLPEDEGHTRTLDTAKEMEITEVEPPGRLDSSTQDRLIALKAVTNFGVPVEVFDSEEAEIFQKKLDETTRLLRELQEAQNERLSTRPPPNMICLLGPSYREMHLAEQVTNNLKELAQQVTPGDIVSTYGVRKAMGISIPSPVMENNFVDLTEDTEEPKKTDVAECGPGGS
Experimental: as §1, §2

PHIP(2) = biological target: T4, PHIP(2) (Homo sapiens, UniProt Q8WWQ0); experiment: Thermal shift assay, PHIP(2)
T4 construct: PHIP(2); purchased in-house (SGC bromodomain thermal shift / AlphaScreen panel)
Experimental: as §1, §2

PB1(4) = biological target: T5, PB1(4) (Homo sapiens, UniProt Q86U86); experiment: Thermal shift assay, PB1(4)
T5 construct: PB1(4); purchased in-house (SGC bromodomain thermal shift / AlphaScreen panel)
T5 sequence (Q86U86 496-637 limits assumed): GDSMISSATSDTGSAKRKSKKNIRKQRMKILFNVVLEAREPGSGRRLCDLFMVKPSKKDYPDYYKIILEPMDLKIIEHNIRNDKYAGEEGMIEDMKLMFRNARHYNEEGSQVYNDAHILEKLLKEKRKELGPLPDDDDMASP
Experimental: as §1, §2

BAZ2A = biological target: T6, BAZ2A (Homo sapiens, UniProt Q9UIF9); experiment: Thermal shift assay, BAZ2A
T6 construct: purchased in-house (SGC bromodomain thermal shift / AlphaScreen panel)
T6 sequence (Q9UIF9 whole entry): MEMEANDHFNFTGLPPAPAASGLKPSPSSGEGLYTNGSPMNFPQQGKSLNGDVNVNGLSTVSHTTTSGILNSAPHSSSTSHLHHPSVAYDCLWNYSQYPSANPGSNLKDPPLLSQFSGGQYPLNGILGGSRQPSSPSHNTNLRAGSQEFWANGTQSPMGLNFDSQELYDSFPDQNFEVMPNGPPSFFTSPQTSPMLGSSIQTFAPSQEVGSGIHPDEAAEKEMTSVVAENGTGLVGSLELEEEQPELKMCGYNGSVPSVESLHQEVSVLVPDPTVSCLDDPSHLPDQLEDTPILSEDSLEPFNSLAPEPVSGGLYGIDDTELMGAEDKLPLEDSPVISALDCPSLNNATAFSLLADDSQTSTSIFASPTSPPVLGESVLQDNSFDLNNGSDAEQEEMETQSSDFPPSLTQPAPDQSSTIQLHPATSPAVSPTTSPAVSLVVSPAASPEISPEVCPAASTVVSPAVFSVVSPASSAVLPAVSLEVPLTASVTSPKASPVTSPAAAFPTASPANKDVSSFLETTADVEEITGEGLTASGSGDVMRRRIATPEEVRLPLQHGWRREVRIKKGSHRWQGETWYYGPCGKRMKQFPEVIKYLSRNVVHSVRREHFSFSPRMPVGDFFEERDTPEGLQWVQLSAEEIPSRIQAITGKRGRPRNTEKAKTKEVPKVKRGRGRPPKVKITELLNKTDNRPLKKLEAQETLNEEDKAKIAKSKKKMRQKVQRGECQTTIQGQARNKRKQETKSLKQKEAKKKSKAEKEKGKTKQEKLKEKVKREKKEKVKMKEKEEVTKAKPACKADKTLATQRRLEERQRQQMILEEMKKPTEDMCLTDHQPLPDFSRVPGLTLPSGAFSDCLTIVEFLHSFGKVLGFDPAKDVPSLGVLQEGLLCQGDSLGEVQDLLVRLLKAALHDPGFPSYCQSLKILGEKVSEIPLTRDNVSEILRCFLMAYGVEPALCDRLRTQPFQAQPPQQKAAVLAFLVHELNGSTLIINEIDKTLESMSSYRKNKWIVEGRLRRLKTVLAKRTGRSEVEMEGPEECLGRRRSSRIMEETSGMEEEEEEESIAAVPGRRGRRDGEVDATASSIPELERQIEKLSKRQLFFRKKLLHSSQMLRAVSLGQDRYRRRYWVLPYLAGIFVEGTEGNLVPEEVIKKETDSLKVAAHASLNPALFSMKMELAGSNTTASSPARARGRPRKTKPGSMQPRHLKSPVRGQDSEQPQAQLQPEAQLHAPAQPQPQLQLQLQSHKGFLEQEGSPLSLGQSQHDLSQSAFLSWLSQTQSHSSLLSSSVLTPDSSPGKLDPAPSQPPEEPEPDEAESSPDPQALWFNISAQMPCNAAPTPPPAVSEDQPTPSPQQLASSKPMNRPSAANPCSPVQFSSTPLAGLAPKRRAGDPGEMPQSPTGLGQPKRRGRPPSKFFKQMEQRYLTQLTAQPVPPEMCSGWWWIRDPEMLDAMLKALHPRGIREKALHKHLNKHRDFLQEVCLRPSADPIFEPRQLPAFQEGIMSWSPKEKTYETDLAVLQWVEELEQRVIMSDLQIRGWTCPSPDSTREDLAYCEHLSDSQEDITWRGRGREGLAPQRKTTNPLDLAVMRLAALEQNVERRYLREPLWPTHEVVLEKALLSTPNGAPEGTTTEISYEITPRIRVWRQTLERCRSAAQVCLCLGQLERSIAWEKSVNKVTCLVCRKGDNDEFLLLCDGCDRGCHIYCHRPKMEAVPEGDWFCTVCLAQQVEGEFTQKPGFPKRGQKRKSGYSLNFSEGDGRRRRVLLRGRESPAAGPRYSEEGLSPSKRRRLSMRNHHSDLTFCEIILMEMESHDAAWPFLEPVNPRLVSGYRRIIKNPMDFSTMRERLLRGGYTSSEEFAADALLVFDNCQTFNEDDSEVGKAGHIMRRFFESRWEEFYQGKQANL
Experimental: as §1, §2

BRD1 = biological target: T7, BRD1 (Homo sapiens, UniProt O95696); experiment: Thermal shift assay, BRD1
T7 construct: purchased in-house (SGC bromodomain thermal shift / AlphaScreen panel)
T7 sequence (O95696 1-1058): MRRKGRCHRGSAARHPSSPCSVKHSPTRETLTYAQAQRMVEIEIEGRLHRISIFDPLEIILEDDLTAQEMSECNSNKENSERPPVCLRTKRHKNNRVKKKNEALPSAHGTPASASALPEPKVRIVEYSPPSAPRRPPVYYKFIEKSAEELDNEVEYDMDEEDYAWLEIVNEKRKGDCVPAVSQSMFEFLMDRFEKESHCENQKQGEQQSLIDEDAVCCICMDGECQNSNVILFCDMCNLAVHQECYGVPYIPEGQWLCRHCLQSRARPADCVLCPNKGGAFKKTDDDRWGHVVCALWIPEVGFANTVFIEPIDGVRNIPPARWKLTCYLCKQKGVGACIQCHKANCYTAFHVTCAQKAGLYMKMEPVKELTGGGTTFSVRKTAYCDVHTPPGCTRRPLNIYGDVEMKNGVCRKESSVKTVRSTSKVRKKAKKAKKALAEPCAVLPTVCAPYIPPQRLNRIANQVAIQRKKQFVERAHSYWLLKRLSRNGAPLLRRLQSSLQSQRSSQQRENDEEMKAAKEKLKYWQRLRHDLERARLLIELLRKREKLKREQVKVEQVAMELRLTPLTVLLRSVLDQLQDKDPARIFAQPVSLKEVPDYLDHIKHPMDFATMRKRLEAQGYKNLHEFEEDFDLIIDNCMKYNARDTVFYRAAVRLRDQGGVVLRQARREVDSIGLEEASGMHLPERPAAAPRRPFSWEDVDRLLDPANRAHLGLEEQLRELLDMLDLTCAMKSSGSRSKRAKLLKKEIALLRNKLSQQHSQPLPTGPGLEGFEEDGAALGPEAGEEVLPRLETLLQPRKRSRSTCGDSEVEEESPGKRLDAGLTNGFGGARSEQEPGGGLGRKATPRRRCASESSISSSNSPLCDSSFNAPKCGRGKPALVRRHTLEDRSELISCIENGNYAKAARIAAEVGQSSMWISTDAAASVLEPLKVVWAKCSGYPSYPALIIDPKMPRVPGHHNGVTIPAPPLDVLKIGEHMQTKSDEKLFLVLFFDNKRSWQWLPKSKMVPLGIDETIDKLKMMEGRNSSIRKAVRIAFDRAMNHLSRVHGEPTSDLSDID
Experimental: as §1, §2

PB1(5) = biological target: T8, PB1(5) (Homo sapiens, UniProt Q86U86); experiment: Thermal shift assay, PB1(5)
T8 construct: PB1(5); purchased in-house (SGC bromodomain thermal shift / AlphaScreen panel)
T8 sequence (Q86U86 645-766 limits assumed): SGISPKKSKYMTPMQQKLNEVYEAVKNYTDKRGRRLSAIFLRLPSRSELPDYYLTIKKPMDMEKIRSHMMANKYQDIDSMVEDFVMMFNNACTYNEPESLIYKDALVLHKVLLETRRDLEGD
Experimental: as §1, §2

TIF1a = biological target: T9, TIF1a (Homo sapiens, UniProt O15164); experiment: Thermal shift assay, TIF1a
T9 construct: Bromosporine with recombinant human bromodomain proteins; made in house
T9 sequence (O15164 899-1004 limits assumed): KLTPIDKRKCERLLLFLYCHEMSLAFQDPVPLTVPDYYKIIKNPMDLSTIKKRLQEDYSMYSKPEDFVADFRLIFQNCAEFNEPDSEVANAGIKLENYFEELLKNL
Experimental: as §1, §2

TAF1L(1) = biological target: T10, TAF1L(1) (Homo sapiens, UniProt Q8IZX4); experiment: Thermal shift assay, TAF1L(1)
T10 construct: Bromosporine with recombinant human bromodomain proteins; made in house
T10 sequence (Q8IZX4 1395-1503 limits assumed): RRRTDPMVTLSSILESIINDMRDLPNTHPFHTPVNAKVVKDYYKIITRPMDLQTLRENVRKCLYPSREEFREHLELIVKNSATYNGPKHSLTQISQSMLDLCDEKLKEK
Experimental: as §1, §2

T1 sequence (Q9UIF8 whole entry): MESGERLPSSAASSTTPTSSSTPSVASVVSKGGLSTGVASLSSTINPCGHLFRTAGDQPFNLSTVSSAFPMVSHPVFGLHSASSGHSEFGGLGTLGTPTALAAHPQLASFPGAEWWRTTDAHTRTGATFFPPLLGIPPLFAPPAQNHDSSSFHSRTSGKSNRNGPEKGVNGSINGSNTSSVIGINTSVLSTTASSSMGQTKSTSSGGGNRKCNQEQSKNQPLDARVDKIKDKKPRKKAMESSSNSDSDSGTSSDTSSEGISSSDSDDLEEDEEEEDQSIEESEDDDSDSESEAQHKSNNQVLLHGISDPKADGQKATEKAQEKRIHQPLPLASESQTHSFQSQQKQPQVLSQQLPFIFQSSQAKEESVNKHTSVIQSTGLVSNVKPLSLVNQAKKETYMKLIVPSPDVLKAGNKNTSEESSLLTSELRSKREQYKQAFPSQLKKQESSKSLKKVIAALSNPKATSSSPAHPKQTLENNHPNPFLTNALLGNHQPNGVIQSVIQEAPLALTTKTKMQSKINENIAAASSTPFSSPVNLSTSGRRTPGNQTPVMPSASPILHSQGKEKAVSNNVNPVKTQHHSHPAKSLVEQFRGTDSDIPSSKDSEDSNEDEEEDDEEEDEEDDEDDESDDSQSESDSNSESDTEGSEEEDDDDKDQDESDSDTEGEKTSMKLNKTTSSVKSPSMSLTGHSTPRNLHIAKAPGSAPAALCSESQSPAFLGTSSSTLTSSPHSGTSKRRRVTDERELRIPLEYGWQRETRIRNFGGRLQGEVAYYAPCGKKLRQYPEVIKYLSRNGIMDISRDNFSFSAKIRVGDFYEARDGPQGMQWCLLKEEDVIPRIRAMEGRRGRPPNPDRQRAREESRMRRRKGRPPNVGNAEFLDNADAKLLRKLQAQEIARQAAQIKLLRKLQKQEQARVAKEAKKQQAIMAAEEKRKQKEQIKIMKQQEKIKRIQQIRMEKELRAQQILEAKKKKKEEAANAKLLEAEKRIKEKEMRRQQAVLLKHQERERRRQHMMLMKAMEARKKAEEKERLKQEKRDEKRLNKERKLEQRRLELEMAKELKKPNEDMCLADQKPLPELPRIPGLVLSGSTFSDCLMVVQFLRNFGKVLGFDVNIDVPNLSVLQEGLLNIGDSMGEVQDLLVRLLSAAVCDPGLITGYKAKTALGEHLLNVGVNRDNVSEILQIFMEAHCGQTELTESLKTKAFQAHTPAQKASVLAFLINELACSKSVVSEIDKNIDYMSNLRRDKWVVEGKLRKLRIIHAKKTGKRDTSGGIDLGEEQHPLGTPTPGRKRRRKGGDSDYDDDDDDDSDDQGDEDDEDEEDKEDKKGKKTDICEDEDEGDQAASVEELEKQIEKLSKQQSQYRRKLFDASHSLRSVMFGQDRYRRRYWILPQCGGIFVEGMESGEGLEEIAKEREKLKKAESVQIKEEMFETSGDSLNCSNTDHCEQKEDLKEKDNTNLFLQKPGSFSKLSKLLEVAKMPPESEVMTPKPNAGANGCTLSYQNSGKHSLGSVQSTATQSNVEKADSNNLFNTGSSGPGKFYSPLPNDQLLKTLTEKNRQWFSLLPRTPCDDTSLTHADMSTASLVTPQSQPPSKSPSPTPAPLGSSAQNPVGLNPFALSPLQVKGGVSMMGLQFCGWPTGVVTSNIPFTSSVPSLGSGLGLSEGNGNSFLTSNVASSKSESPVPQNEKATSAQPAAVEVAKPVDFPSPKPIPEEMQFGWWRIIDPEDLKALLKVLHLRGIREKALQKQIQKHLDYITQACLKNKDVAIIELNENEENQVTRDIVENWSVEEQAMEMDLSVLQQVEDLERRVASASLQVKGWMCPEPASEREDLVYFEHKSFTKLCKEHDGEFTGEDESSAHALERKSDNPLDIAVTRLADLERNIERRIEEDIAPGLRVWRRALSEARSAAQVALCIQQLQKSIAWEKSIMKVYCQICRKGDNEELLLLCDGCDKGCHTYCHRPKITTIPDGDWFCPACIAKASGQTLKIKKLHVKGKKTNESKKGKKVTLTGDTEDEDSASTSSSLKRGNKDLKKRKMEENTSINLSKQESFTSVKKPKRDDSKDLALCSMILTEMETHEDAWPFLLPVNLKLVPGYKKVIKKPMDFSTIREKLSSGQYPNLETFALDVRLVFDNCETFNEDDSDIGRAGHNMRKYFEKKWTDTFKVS

| Thermal stabilisation, BAZ2B (BAZ2B; 10 µM compound concentration) | Thermal stabilisation, TRIM33B (TRIM33B; 10 µM compound concentration) | Thermal stabilisation, BRD7 (BRD7; 10 µM compound concentration) | Thermal stabilisation, PHIP(2) (PHIP(2); 10 µM compound concentration) | Thermal stabilisation, PB1(4) (PB1(4); 10 µM compound concentration) | Thermal stabilisation, BAZ2A (BAZ2A; 10 µM compound concentration) | Thermal stabilisation, BRD1 (BRD1; 10 µM compound concentration) | Thermal stabilisation, PB1(5) (PB1(5); 10 µM compound concentration) | Thermal stabilisation, TIF1a (TIF1a; 10 µM compound concentration) | Thermal stabilisation, TAF1L(1) (TAF1L(1); 10 µM compound concentration) | SMILES | Thermal stabilisation, BAZ2B (BAZ2B; 50 μM compound) | Thermal stabilisation, TRIM33B (TRIM33B; 50 μM compound) | Thermal stabilisation, BRD7 (BRD7; 50 μM compound) | Thermal stabilisation, PHIP(2) (PHIP(2); 50 μM compound) | Thermal stabilisation, PB1(4) (PB1(4); 50 μM compound) | Thermal stabilisation, BAZ2A (BAZ2A; 50 μM compound) | Thermal stabilisation, BRD1 (BRD1; 50 μM compound) | Thermal stabilisation, PB1(5) (PB1(5); 50 μM compound) | Thermal stabilisation, TIF1a (TIF1a; 50 μM compound) | Thermal stabilisation, TAF1L(1) (TAF1L(1); 50 μM compound) |
| --- | --- | --- | --- | --- | --- | --- | --- | --- | --- | --- | --- | --- | --- | --- | --- | --- | --- | --- | --- | --- |
| 1.385 | 0.03 | 8.48 | -2.61 | 1.035 | 1.125 | 2.055 | 0.98 | 0.16 | 0.575 | CCOC(=O)Nc1cc(-c2ccc(C)c(NS(C)(=O)=O)c2)nn2c(C)nnc12 [Bromosporine, reference compound] |  |  |  |  |  |  |  |  |  |  |
|  |  |  |  |  |  |  |  |  |  | COC(=O)c1ccc(C(=O)Nc2ccc3[nH]c(CN4CCCCC4)nc3c2)cc1 [Compound 1] | 0.57 | 0.02 | 0.57 | -0.595 | 0.22 | 0.81 | 0.2 | -0.245 | -1.13 | 0.39 |
|  |  |  |  |  |  |  |  |  |  | C[C@H]1CCCN1Cc1nc2cc(NC(=O)c3ccc4c(cnn4C)c3)ccc2[nH]1 [Compound 92] | 0.155 | -0.28 | -0.08 | -1.48 | -0.215 | 0.25 | 0.215 | -0.56 | -1.04 | -0.215 |

Reference: paper PMC6348381, “Discovery of an MLLT1/3 YEATS Domain Chemical Probe” (Angewandte Chemie (International Ed. in English), 2018)
